US20230111914A1, “SYNTHETIC TRITERPENOIDS WITH NITROGEN-BASED SUBSTITUENTS AT C-17 AND METHODS OF USE THEREOF” (REATA PHARMACEUTICALS, INC., priority 2019, published 2023)
Several values for one entry are separate records, joined by “and”; a condition that tells them apart may be missing. Equal entries are not always repeated. Marks after values point to notes of the source that are not given here.

Experiments:
[1] = tested on: AREc32 reporter cell line (luciferase reporter under eight copies of the rat GSTA2 ARE sequence); assay: AREc32 luciferase reporter activation; type: cell-based, human; conditions: for EC (2-fold): Homo sapiens, Arec32, concentration that increases the luminescence signal 2-fold above vehicle, 19 h treatment, read-out: AREc32 EC2X (Mean ± SD)
[2] = tested on: IFNγ-induced NO production in RAW 264.7 cells; assay: Nitric oxide suppression assay (IFNγ-induced NO production, Griess nitrite readout); type: cell-based, mouse; conditions: for IC50: Mus musculus, RAW264.7, RAW 264.7 cells, 2 h pretreatment, 20 ng/mL interferon gamma 24 h, average of trials per footnote, read-out: NO IC50

With `CC1(C)CC[C@]2(n3cnnc3)CC[C@]3(C)[C@H](C(=O)C=C4[C@@]5(C)C=C(C#N)C(=O)C(C)(C)[C@@H]5CC[C@]43C)[C@@H]2C1` [Compound T39] the “AREc32 EC2X Relative to RTA 402 (Mean ± SD)” value [1] was 9.8 ± 1.1^a fold, the EC (2-fold) [1] was 0.0943 ± 0.00426 µM and the “NO IC50 Rel. to RTA 402” value [2] was 42.82 ± 14.24^e fold. For the same compound, the IC50 [2] was 84.5 ± 18.9 nM.
`CC1(C)CC[C@]2(CN3CCOC3)CC[C@]3(C)[C@H](C(=O)C=C4[C@@]5(C)C=C(C#N)C(=O)C(C)(C)[C@@H]5CC[C@]43C)[C@@H]2C1` [Compound T47] was tested, and the “AREc32 EC2X Relative to RTA 402 (Mean ± SD)” value [1] was 8.6^e fold, the EC (2-fold) [1] was 0.122 µM and the “NO IC50 Rel. to RTA 402” value [2] was 7.54 ± 2.47^d fold. For the same compound, the IC50 [2] was 17.3 ± 8.55 nM.
`CC1(C)CC[C@]2(CN3C(=O)CCN3C(=O)OC(C)(C)C)CC[C@]3(C)[C@H](C(=O)C=C4[C@@]5(C)C=C(C#N)C(=O)C(C)(C)[C@@H]5CC[C@]43C)[C@@H]2C1` [Compound T50] was tested, and the “NO IC50 Rel. to RTA 402” value [2] was 1.17 ± 0.18^d fold and the IC50 [2] was 4.82 ± 1.3 nM.
`CCC(=O)N[C@]12CCC(C)(C)C[C@H]1[C@H]1C(=O)C=C3[C@@]4(C)C=C(C#N)C(=O)C(C)(C)[C@@H]4CC[C@@]3(C)[C@]1(C)CC2` [Compound 63189, reference compound] was tested, and the “NO IC50 Rel. to RTA 402” value [2] was 4.06 fold and the IC50 [2] was 7.2 nM.
With `CC1(C)CC[C@]2(CN3CC(F)C3)CC[C@]3(C)[C@H](C(=O)C=C4[C@@]5(C)C=C(C#N)C(=O)C(C)(C)[C@@H]5CC[C@]43C)[C@@H]2C1` [Compound T26] the “AREc32 EC2X Relative to RTA 402 (Mean ± SD)” value [1] was 1.6^e fold, the EC (2-fold) [1] was 0.0236 µM and the “NO IC50 Rel. to RTA 402” value [2] was 2.73 ± 1.01^e fold. For the same compound, the IC50 [2] was 5.61 ± 1.84 nM.
For `CC1(C)CC[C@]2(CN3NCCC3=O)CC[C@]3(C)[C@H](C(=O)C=C4[C@@]5(C)C=C(C#N)C(=O)C(C)(C)[C@@H]5CC[C@]43C)[C@@H]2C1` [Compound T51], the “AREc32 EC2X Relative to RTA 402 (Mean ± SD)” value [1] was 1.1^e fold, the EC (2-fold) [1] was 0.0117 µM and the “NO IC50 Rel. to RTA 402” value [2] was 2.04 ± 0.73^d fold. It also gave an IC50 [2] of 8.55 ± 3.65 nM.
For `Cc1cc(C)n(C[C@]23CCC(C)(C)C[C@H]2[C@H]2C(=O)C=C4[C@@]5(C)C=C(C#N)C(=O)C(C)(C)[C@@H]5CC[C@@]4(C)[C@]2(C)CC3)n1` [Compound T22], the “AREc32 EC2X Relative to RTA 402 (Mean ± SD)” value [1] was 3.7^e fold, the EC (2-fold) [1] was 0.0445 µM and the “NO IC50 Rel. to RTA 402” value [2] was 5.29 ± 1.29^d fold. The IC50 [2] was 9.18 ± 1.72 nM.
In the case of `[2H]C([2H])([2H])C(=O)NC[C@]12CCC(C)(C)C[C@H]1[C@H]1C(=O)C=C3[C@@]4(C)C=C(C#N)C(=O)C(C)(C)[C@@H]4CC[C@@]3(C)[C@]1(C)CC2` [Compound T52], the “AREc32 EC2X Relative to RTA 402 (Mean ± SD)” value [1] is reported as 0.3^e fold, the EC (2-fold) [1] is reported as 0.003 µM and the “NO IC50 Rel. to RTA 402” value [2] is reported as 0.28 ± 0.13^e fold. For the same compound, the IC50 [2] was 0.52 ± 0.24 nM.
`CC1(C)CC[C@]2(n3cc(CO)nn3)CC[C@]3(C)[C@H](C(=O)C=C4[C@@]5(C)C=C(C#N)C(=O)C(C)(C)[C@@H]5CC[C@]43C)[C@@H]2C1` [Compound T42] was tested, and the “AREc32 EC2X Relative to RTA 402 (Mean ± SD)” value [1] was 1.3 ± 0.34^f fold, the EC (2-fold) [1] was 0.0148 ± 0.00277 µM and the “AREc32 Relative to CC in Same Experiment (Mean ± SD)” value ([1]; comparison compound CC4, average of ratios from three replicate experiments) was 0.490 ± 0.057. For the same compound, the “NO IC50 Rel. to RTA 402” value [2] was 2.97 ± 0.47^d fold and the IC50 [2] was 12.4 ± 3.92 nM.
In the case of `CN(C[C@]12CCC(C)(C)C[C@H]1[C@H]1C(=O)C=C3[C@@]4(C)C=C(C#N)C(=O)C(C)(C)[C@@H]4CC[C@@]3(C)[C@]1(C)CC2)C(=O)OC(C)(C)C` [Compound T5], the “AREc32 EC2X Relative to RTA 402 (Mean ± SD)” value [1] is reported as 3.9 ± 0.36^a fold, the EC (2-fold) [1] is reported as 0.0425 ± 0.00947 µM and the “NO IC50 Rel. to RTA 402” value [2] is reported as 6.04 ± 2.02^d fold. It also gave an IC50 [2] of 14.2 ± 6.51 nM.
For `CC1(C)CC[C@]2(CN3CCNC3=O)CC[C@]3(C)[C@H](C(=O)C=C4[C@@]5(C)C=C(C#N)C(=O)C(C)(C)[C@@H]5CC[C@]43C)[C@@H]2C1` [Compound T14], the “AREc32 EC2X Relative to RTA 402 (Mean ± SD)” value [1] was 0.4^e fold, the EC (2-fold) [1] was 0.00437 µM and the “NO IC50 Rel. to RTA 402” value [2] was 0.51 ± 0.09^e fold. It also gave an IC50 [2] of 0.89 ± 0.08 nM.
`CC1(C)CC[C@]2(N3CCNC3=O)CC[C@]3(C)[C@H](C(=O)C=C4[C@@]5(C)C=C(C#N)C(=O)C(C)(C)[C@@H]5CC[C@]43C)[C@@H]2C1` [Compound T30] was tested, and the “NO IC50 Rel. to RTA 402” value [2] was 3.68 ± 0.33^d fold and the IC50 [2] was 15 ± 2.92 nM.
With `CC1(C)CC[C@]2(CN3CCC3)CC[C@]3(C)[C@H](C(=O)C=C4[C@@]5(C)C=C(C#N)C(=O)C(C)(C)[C@@H]5CC[C@]43C)[C@@H]2C1` [Compound T25] the “AREc32 EC2X Relative to RTA 402 (Mean ± SD)” value [1] was 1.5^e fold, the EC (2-fold) [1] was 0.022 µM and the “NO IC50 Rel. to RTA 402” value [2] was 1.21 ± 0.45^e fold. The IC50 [2] was 2.5 ± 0.92 nM.
For `CC1(C)CC[C@]2(CN)CC[C@]3(C)[C@H](C(=O)C=C4[C@@]5(C)C=C(C#N)C(=O)C(C)(C)[C@@H]5CC[C@]43C)[C@@H]2C1` [CC2, reference compound], the “AREc32 EC2X Relative to RTA 402 (Mean ± SD)” value [1] was 1.6 ± 0.17^g fold, the EC (2-fold) [1] was 0.0161 ± 0.00081 µM and the “NO IC50 Rel. to RTA 402” value [2] was 1.55 fold and 1.55 ± 0.30^e fold. The IC50 [2] was 3.15 nM.
For `CC1(C)CC[C@]2(N3CCCC3=O)CC[C@]3(C)[C@H](C(=O)C=C4[C@@]5(C)C=C(C#N)C(=O)C(C)(C)[C@@H]5CC[C@]43C)[C@@H]2C1` [Compound T24], the “AREc32 EC2X Relative to RTA 402 (Mean ± SD)” value [1] was 3.8^e fold, the EC (2-fold) [1] was 0.0379 µM and the “NO IC50 Rel. to RTA 402” value [2] was 2.17 ± 0.72^e fold. For the same compound, the IC50 [2] was 3.6 ± 0.08 nM.
